In the oligonucleotide strings, read from the 5' end, every base follows the letter of its sugar. An asterisk marks phosphorothioate; unmarked linkages are phosphodiester. Other units and linkages are bracketed, terminal groups are in braces. A string of capitals states the bases alone. d = 2'-deoxy (DNA)
Experiments:
[1] = cited from earlier work
HMGA1 = target: T1, HMGA1 (Homo sapiens, UniProt P17096); test: Electrophoretic mobility shift assay (EMSA), HMGA1 competitive binding against ATf10 DNA; conditions: for formation of HMGA/ATf10 DNA complex in presence of competitor DNA: equal amounts of ATf10 and CG10 or Mix10, ATf10 DNA:HMGA1 1:1
T1 construct: The cDNA for full length HMGA1b was cloned into pET-30b; made in house; host or cells: Escherichia coli BL21 (DE3)
T1 sequence (P17096 1-96 isoform P17096-2): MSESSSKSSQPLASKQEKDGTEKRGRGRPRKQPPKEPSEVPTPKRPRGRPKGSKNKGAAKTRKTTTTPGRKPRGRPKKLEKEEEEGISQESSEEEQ
Protocol: The cDNA for full length HMGA1b was cloned into pET-30b and overexpressed in Eschericia coli (E. Coli) BL21 (DE3). E. coli expressing HMGA1b was cultured at 37° C. to an OD600 measurement of 0.8 to 1.0 OD600. Protein expression was induced by the addition of 1 mM IPTG and shaking at 37° C. for 4-6 hours. HMGA1 was purified by trichloroacetic acid precipitation as described in R. Reeves, HMGA proteins: isolation, biochemical modifications, and nucleosome interactions. Methods in enzymology 375 (2004) 297-322, the disclosure of which is incorporated herein by reference. Overexpressed HMGA1b was further purified with a Sephadex G-25 column in H2O and lyophilized using a standard freezedrying procedure. The samples were resolublized in a 25 mM Tris-HCl (pH 6.5), 50 mM NaCl buffer for analysis.
The following 28-mer oligonucleotides were purchased from Integrated DNA Technologies (Coralville, Iowa, USA): ATf10 5′-(56FAM)-[…]-3′ (SEQ ID NO: 4), and ATs10 5′-GGGT*T*T*T*T*T*T*T*T*T*[…]-3′ (SEQ ID NO: 5) (the “*” indicates the location of phosphorothioate linkage). ATf10 contained a fluorescence tag to serve as a marker for later analysis. […] AT10f was annealed with its complementary strand without a fluorescence tag, and ATs10 was annealed with a strand with no sulfur substitution. […]
The HMGA protein samples were prepared in 25 mM Tris-HCl (pH 6.5), 50 mM NaCl, and the concentrations determined based on UV […] absorbance (ε=38,200 mol-1 cm-1). […] The DNA was detected at 495 nm using the VersaDoc™ Imaging System Model 3000 from BIO-RAD Laboratories, Inc. of Hercules, Calif. […]
In order to determine if HMGA1 DNA binding activity was affected by sulfur substitution in the DNA phosphodiester backbone, fluorescence labeled DNA (ATf10 DNA) was used in competitive binding assays against various sulfur substituted DNAs where different ratios of ATf10 DNA and ATs10 DNA were added to a constant amount of purified HMGA1 (FIG. 1A). […]
Since ATs10 DNA has no fluorescence label, no signal could be detected when only ATs10DNA was added to HMGA1 (FIG. 1A, lane 9). […]

Question: Which toxicity in humans [1] does the source give for `NC(=O)OC[C@H]1c2c(O)cc(C=O)cc2N2CC3N[C@@H]3[C@]1(O)O2` (stereo partly shown) [FR900482] here?
Answer: high toxicity

Question: Which “ATf10 DNA detected in the unshifted position” value (HMGA1; 1:1 ratio of ATf10 DNA to ATs10 DNA, ATf10 DNA to HMGA1 1:1.5 (FIG. 1A, lane 4)) does the source give for “ATs10: 28-mer oligonucleotide with phosphorothioate linkages in the T tract (SEQ ID NO: 5) (DNA dGdGdGdT*dT*dT*dT*dT*dT*dT*dT*dT*dT*dCdGdCdGdGdCdGdGdCdCdCdCdGdCdG; annealed with complementary strand)” here?
Answer: approximately half

Question: Which “formation of HMGA/ATf10 DNA complex in presence of competitor DNA” value (HMGA1) does the source give for “CG10: negative control DNA containing only a mixture of C and G (SEQ ID NO: 6) (DNA GGGCCCCCCCCCCCGCGGCGGCCCCGCG; DNA, all phosphodiester, methylation of C not given here)” here?
Answer: still observed

Question: For “Mix10: negative control DNA, random sequence of A, T, C, G with no AT-stretch (SEQ ID NO: 7) (DNA GGGCGTGACTGAGCGCGGCGGCCCCGCG; DNA, all phosphodiester, methylation of C not given here)”, which “formation of HMGA/ATf10 DNA complex in presence of competitor DNA” value (HMGA1) is on record?
Answer: still observed
